According to US20230364032A1, “USE OF 2-HOBA TO TREAT ATHEROSCLEROSIS” (Vanderbilt University, priority 2020, published 2023):
Entries after “also recorded” stand apart in the source; their conditions may differ.

What was measured:
[1] = 2-HOBA and 4-HOBA levels in plasma and tissues of C57BL/6J mice after intraperitoneal injection (LC/MS); assay type: in vivo, mouse; conditions: for liver, spleen, and kidney levels of 2-HOBA versus 4-HOBA: 30 min after intraperitoneal injection
Method: FIG. 12A-12D show the levels of 2-HOBA or 4-HOBA in plasma and tissues from C57BL/6J mice. A. Plasma samples were collected from female C57BL/6J mice on a chow diet after intraperitoneal injection of 1 mg 2-HOBA (n=3) or 1 mg 4-HOBA (n=3). *p<0.01, Student t test. B-D. Levels of 2-HOBA and 4-HOBA in liver (B), spleen (C), and kidney (D) of WT mice 30 min after intraperitoneal injection. (Mean±SEM shown for each, N.S. Student t test). The levels of 2-HOBA or 4-HOBA were measured in the plasma and tissues using LC/MS as described in the Methods.
Measurement of 2-HOBA and 4-HOBA was performed by LC/MS after derivatization with phenylisothiocyanate (PITC), and using [^2H4]-2-HOBA as an internal standard as previously described for 2-HOBA^71 (See FIG. 23). For these assays, the Waters Xevo-TQ-Smicro triple quadrupole mass spectrometer operating in positive ion multiple reaction monitoring (MRM) mode monitored the following transitions: for PITC-2-HOBA or PITC-4-HOBA, m/z 259→107@20 eV (quantifier transition) and m/z 259→153 @20 eV (qualifier transition); for PITC-[^2H4]2-HOBA m/z 263 →107@20 eV (quantifier transition), m/z 263→111 @20 eV (qualifier transition). Abundance for PITC-2-HOBA was calculated based on the ratio of peak area versus that of PITC-[^2H4]2-HOBA. Because the transition reactions for PITC-4-HOBA are less efficient than for PITC-2-HOBA, the ratio of peak areas for PITC-4-HOBA/PITC-[^2l H4]2-HOBA was multiplied by the correction factors 3.9 and 5.7 when using the m/z 107 and m/z 153 transition, respectively (See FIG. 24).

peritoneal macrophages = assay: Macrophage cytokine mRNA by real time PCR (oxidized LDL or H2O2); assay type: cell-based, mouse
Method: […] Apoptotic cells were then detected by Annexin V staining and flow cytometry. […] (6A to 6H) Data are presented as mean±SEM from three independent experiments, ***p<0.001, One-way ANOVA with Bonferroni's post hoc test.
Total RNA was isolated and purified, cDNA was synthesized, and the mRNA levels of IL-1β, IL-6 and TNF-α were measured by real-time PCR. The data are from three independent experiments. *p<0.05, **p<0.01, ***p<0.001, One-way ANOVA (Bonferroni's post hoc test).
Total RNA was extracted and purified using Aurum Total RNA kit (Bio-Rad) according to the manufacturer's protocol. Complementary DNA was synthesized with iScript reverse transcriptase (Bio-Rad). Relative quantitation of the target mRNA was performed using specific primers, SYBR probe (Bio-Rad), and iTaqDNA polymerase (Bio-Rad) on IQ5 Thermocylcer (Bio-Rad) and normalized with 18S, as described earlier. 18S, IL-1[…] and TNF-[…] primers used were as described earlier^67.

[2] = system: WT peritoneal macrophages; assay: Cholesterol enrichment of macrophages by LDL from treated mice; assay type: cell-based, mouse; conditions: LDL from 2-HOBA versus 4-HOBA or vehicle treated Ldlr−/− mice, 24 hrs
Method: FIG. 21A-D show the effects of 2-HOBA on plasma and LDL MDA adducts in hypercholesterolemic Ldlr^−/− mice. (20A) The MDA content in plasma from Ldlr^−/− mice consuming a Western diet for 16 weeks and treated with 2-HOBA, 4-HOBA, or vehicle was measured by TBARS Assay(*p<0.05, **p<0.01). (20B) The levels of MDA adducts were measured from LDL isolated from the Ldlr^−/− mice by ELISA. N=10 per group, ***p<0.001. (20C) LDL was isolated from control and FH subjects (n=6) pre and post LDL apheresis and the MDA adduct content was measured by ELISA. (20D) LDL was isolated from 2-HOBA, 4-HOBA, or vehicle treated hypercholesterolemic Ldlr^−/− mice. WT peritoneal macrophages were incubated for 24 hrs with the LDL and the cellular cholesterol content was measured as described in methods. (20A-D) One-way ANOVA with Bonferroni's post hoc test).
MDA was prepared immediately before use by rapid acid hydrolysis of maloncarbonyl bis-(dimethylacetal) as described^31. Briefly, 20 μL of 1 M HCl was added to 200 μL of maloncarbonyl bis-(dimethylacetal), and the mixture was incubated for 45 min at room temperature. The MDA concentration was determined by absorbance at 245 nm, using the coefficient factor 13, 700 M^−1 cm^−1. […] The LDL samples were incubated for 24 h with macrophages and the cholesterol content of the cells was measured using an enzymatic cholesterol assay as described^61.

| SMILES | liver, spleen, and kidney levels of 2-HOBA versus 4-HOBA [1] | levels of IL-1β, IL-6, and TNF-α mRNA (peritoneal macrophages; 500 μM 2-HOBA in the presence of H2O2 (100 μM, 24 hours)) | macrophage inflammatory response: mRNA levels of IL-1β, IL-6, and TNF-α (peritoneal macrophages; oxidized LDL, 24 h, 500 μM) | ability of LDL from treated mice to enrich cells with cholesterol [2] | clearance, 4-HOBA vs 2-HOBA ([1]; after intraperitoneal injection) | plasma levels after intraperitoneal injection, 4-HOBA vs 2-HOBA ([1]; female C57BL/6J mice, 1 mg i.p.) |
| --- | --- | --- | --- | --- | --- | --- |
| NCc1ccccc1O [2-HOBA, 2-hydroxybenzylamine] | not significantly different | significantly reduced | significantly reduced | not different | – | – |
| NCc1ccc(O)cc1 [4-HOBA, 4-hydroxybenzylamine, reference compound] | not significantly different | – | – | – | more rapid clearance; also recorded: cleared more rapidly | slightly higher initially |
